Patent US11247966B2, “4-(p-trifluoromethylbenzyl)-3-fluoro-1,2,4-triphenylamine derivative and pharmaceutical composition and applications thereof” (HEBEI MEDICAL UNIVERSITY, priority 2018, dated 2022)
Like-named read-outs stand apart in the source and are kept apart here.

Legend:
[1] = system: Kunming mice; experiment: Maximum electroshock seizure (MES) experimental model; assay type: in vivo
Procedure: Methods: Kunming mice, male, 18-22 g, are placed in the experimental environment 3 days before the experiment to make them adapt to the environment, eat and drink freely; the room temperature is 23-25° C.
The experimental instrument is YLS-9A physiological and pharmacological electronic stimulator: continuous wave output; wave width of 20 ms; gap of 10 ms; wave number of 70; voltage of 60 V; current limit of 3.5 mA.
Methods: 24 hours before the formal experiment, the mice are screened, the stimulator is set according to the above parameters, the mouse ears are clamped with crocodile clip of the stimulator, and the stimulation is started. The ankylosis of the hind limbs of the mice is taken as a positive index to screen the qualified (positive) mice and eliminate the substandard mice. In the formal experiment, the grouping is randomly performed with 10 mice in each group according to the experimental scheme, and the electrical stimulation is carried out. If no ankylosis is found in the hind limbs, it is effective (positive).

[2] = biological target: KCNQ2/3 channels (Homo sapiens, UniProt O43525+O43526); experiment: High-throughput determination of Rb+ efflux by atomic absorption spectrometry; assay type: cell-based
Description: The determination technique of Rb^+ efflux by AAS is safer and faster in high-throughput screening of potassium channel regulators, and has the characteristics of directly reflecting the activity of ion channels and the regulatory role of regulators. Rb has a similar atomic size to K, and the potassium channel is permeable to Rb^+, the opening or closing of the potassium channel can be determined by measuring the concentration of Rb^+ efflux. Rb has a specific atomic absorption at 780 nm and the Rb^+ concentration can be measured by AAS. Therefore, AAS can be used to screen potassium channel openers or shutters by the high-throughput determination technique for measuring Rb^+ efflux.
Chinese hamster ovary (CHO) cells with stable KCNQ2/3 channels in logarithmic growth phase are inoculated on a 96-well plate at a density of 2×10^4 cells/well. Three wells are provided for each concentration. Solvent control wells having the corresponding concentrations are arranged. After adherent growth overnight, the culture medium is discarded, and 200 μl of a loading buffer containing RbCL is added, and culturing is performed at 37° C. and under 5% CO2 for 3 h. The loading buffer is then discarded and washing is performed 3 times with a wash buffer. To screen the channel opener, the compound to be tested is diluted in a depolarizing buffer and 200 μl of the above solution is added into the cells and reacted for 10 min. After incubation for 10 min, 200 μl of a supernatant is carefully transferred into another 96-well plate. Rb^+ atomic absorption at 780 nm is determined by an ICR8000 atomic absorption spectrometer. The relative efflux is calculated according to the formula Fsupern=(Rb_supern/cpd/Rb_supern/d)*100.

[3] = system: KM mice; experiment: Pentylenetetrazole (PTZ)-induced epilepsy model; assay type: in vivo; settings: PTZ 85 mg/kg s.c.
Procedure: Experimental conditions: room temperature 25±1° C.
Experimental animals: KM mice, half male and half female, weighing 18-25 g, 10-12 mice in each group, adapt to the environment for 3 days and eat and drink freely.
Methods: the day before the experiment, each animal is labeled to ensure that the determination time of each animal after administration is consistent. The experimental animals fast for more than 8 h the night before the experiment. […] After the drugs are absorbed, the model is made by the subcutaneous administration of 85 mg/kg PTZ (administration volume of 0.1 ml/10 g) body weight to the neck and back. After PTZ administration, time is counted and the model is put into the transparent observation box in time to keep the environment quiet. The seizure threshold and the number of non-seizure animals are recorded. […] The seizure threshold and the rate of non-death mice (i.e. protective rate) within 12 h after constructing the mold are compared.

[4] = biological target: KCNQ2/3 (Kv7.2/7.3) (Homo sapiens, UniProt O43525+O43526); experiment: Electrophysiological patch clamp determination, KCNQ2/3; assay type: cell-based; settings: whole-cell patch clamp, CHO cells; read-out: EC50 value, activation of KCNQ2/3 (Kv7.2/7.3)
Procedure: (§1) CHO cells culture: CHO cells with stable KCNQ channels are cultured in a DMEM culture solution containing 10% fetal bovine serum, 100 U/ml penicillin and streptomycin, and then digested and passaged by pancreatin. The cells are placed on a 12 mm round cover glass and cultured in a 24-well plate.
(§2) Cell membrane current record by patch clamp technique: HEKA-EPC10 is used as a patch clamp amplifier. Amphotericin B (final concentration of 0.1-0.2 mg/ml) is used in the electrode to record the perforation patch clamp. After polishing, the microelectrode is filled with an electrode inner fluid, and the resistance value is controlled to be 2-4 MΩ. The electrode inner fluid used for recording CHO cells is (mM): KCl 160, HEPES 5, MgCl2 3, CaCl2 1 and EGTA 3, and the pH is adjusted to 7.4 with KOH. The components of the extracellular fluid are (mM): NaCl 160, KCl 2.5, HEPES 10, glucose 8, MgCl2 1 and CaCl2 5. After forming a giant resistance seal between the microelectrode and the cell membrane, the current is recorded under voltage clamping.

[5] = biological target: KCNQ4 (Kv7.4) (Homo sapiens, UniProt P56696); experiment: Electrophysiological patch clamp determination, KCNQ4; assay type: cell-based; settings: CHO cells
Procedure: as §1, §2

[6] = intraperitoneal 1 mg/kg body weight
[7] = Rb+ efflux by AAS, CHO cells with stable KCNQ2/3 channels, read-out: KCNQ2/3 EC50

KCNQ2/3 channels, sequence (O43525 whole entry): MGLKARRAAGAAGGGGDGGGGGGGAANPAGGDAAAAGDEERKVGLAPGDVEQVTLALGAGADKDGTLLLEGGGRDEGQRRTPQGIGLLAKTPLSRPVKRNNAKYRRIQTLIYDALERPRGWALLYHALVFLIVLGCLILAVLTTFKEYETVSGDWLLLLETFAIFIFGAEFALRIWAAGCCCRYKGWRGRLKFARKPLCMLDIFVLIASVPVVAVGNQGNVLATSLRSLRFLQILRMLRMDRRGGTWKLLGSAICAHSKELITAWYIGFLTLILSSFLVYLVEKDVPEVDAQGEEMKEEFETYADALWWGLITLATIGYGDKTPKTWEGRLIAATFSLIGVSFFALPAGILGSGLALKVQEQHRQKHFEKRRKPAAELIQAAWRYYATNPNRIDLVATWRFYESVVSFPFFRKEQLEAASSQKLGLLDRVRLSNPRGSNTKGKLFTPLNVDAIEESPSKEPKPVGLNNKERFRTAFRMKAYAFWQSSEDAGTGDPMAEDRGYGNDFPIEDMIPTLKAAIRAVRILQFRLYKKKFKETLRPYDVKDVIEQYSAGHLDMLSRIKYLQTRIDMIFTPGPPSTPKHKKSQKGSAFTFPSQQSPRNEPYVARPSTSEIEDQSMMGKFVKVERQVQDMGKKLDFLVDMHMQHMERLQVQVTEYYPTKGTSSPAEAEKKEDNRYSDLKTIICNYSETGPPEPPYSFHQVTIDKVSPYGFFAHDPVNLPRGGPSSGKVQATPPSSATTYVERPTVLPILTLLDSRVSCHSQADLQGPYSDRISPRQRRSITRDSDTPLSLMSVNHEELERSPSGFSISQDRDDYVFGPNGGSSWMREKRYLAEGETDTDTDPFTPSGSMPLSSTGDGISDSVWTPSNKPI
KCNQ2/3 channels, sequence (O43526 whole entry): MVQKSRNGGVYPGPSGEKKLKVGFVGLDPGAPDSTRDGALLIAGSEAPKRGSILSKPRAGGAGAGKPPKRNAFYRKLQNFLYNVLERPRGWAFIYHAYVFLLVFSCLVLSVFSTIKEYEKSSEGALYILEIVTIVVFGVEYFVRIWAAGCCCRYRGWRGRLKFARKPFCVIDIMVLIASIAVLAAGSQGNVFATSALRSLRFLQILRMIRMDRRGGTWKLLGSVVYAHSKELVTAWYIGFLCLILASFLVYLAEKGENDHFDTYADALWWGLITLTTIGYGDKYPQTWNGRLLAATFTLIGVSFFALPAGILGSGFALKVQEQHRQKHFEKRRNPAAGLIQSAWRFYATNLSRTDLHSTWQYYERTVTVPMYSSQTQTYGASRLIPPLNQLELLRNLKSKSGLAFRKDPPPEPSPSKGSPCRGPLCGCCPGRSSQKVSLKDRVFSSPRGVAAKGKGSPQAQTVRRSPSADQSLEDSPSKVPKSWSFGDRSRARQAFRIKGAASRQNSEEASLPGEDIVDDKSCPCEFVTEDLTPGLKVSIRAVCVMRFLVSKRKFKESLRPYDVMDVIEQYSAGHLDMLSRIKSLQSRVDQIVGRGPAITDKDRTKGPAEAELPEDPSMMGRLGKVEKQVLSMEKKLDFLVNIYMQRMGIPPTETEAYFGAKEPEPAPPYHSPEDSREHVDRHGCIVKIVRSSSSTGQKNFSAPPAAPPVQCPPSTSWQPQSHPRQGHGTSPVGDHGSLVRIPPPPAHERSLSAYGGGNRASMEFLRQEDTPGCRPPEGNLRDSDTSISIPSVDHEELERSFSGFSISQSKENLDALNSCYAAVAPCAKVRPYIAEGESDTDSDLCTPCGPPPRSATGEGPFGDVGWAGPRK

Nc1c(NC(=O)CCC2CCCC2)ccc(NCc2ccc(C(F)(F)F)cc2)c1F [Compound 1, N-(2-amino-3-fluoro-4-(4-trifluoromethylbenzylamino)-phenyl)-cyclopentyl propionamide]
effective rate (no ankylosis of hind limbs) [1, 6]: 100% | EC50 [2, 7]: 150 ± 40 nM | protective rate (non-death mice within 12 h) ([3]; 3 mg/kg body weight i.p.): 100% | seizure threshold ([3]; 3 mg/kg body weight i.p.): 867.21 ± 152.51 s | protective rate (non-death mice within 12 h) ([3]; 5 mg/kg body weight i.p.): 100% | seizure threshold ([3]; 5 mg/kg body weight i.p.): 1185.96 ± 134.28 s | EC50 [4]: 380 ± 100 nM | opening activity to KCNQ4 (Kv7.4) [5]: relatively small

CC(C)(C)CC(=O)Nc1ccc(NCc2ccc(C(F)(F)F)cc2)c(F)c1N [Compound 2, N-(2-amino-3-fluoro-4-(4-trifluoromethylbenzylamino)-phenyl)-3,3-dimethyl Butyramide]
effective rate (no ankylosis of hind limbs) [1, 6]: 90% | EC50 [2, 7]: 210 ± 80 nM

Nc1c(NC(=O)C2CCCC2)ccc(NCc2ccc(C(F)(F)F)cc2)c1F [Compound 3, N-(2-amino-3-fluoro-4-(4-trifluoromethylbenzylamino)-phenyl)-cyclopentyl Formamide]
EC50 [2, 7]: 2830 ± 210 nM | melting point: 222.9 to 223.5 °C

Nc1c(NC(=O)CC2CCCC2)ccc(NCc2ccc(C(F)(F)F)cc2)c1F [Compound 4, N-(2-amino-3-fluoro-4-(4-trifluoromethylbenzylamino)-phenyl)-cyclopentyl Acetamide]
EC50 [2, 7]: 580 ± 130 nM | melting point: 196.9 to 197.5 °C

Nc1c(NC(=O)CCN2CCCCC2)ccc(NCc2ccc(C(F)(F)F)cc2)c1F [Compound 5, N-(2-amino-3-fluoro-4-(4-trifluoromethylbenzylamino)-phenyl)-3-piperidinyl-1-propionamide]
EC50 [2, 7]: 750 ± 120 nM | melting point: 202.1 to 203.5 °C

Nc1c(NC(=O)CCc2ccco2)ccc(NCc2ccc(C(F)(F)F)cc2)c1F [Compound 6, N-(2-amino-3-fluoro-4-(4-trifluoromethylbenzylamino)-phenyl)-3-furanyl-2-propanamide]
EC50 [2, 7]: 3580 ± 730 nM | melting point: 212.2 to 213.5 °C

Nc1c(NC(=O)CCCc2ccccc2)ccc(NCc2ccc(C(F)(F)F)cc2)c1F [Compound 7]
EC50 [2, 7]: 5260 ± 820 nM | melting point: 198.5 to 199.5 °C

CCOC(=O)Nc1ccc(NCc2ccc(F)cc2)cc1N [RTG, Retigabine, reference compound]
effective rate (no ankylosis of hind limbs) ([1]; intraperitoneal 10 mg/kg body weight): 80% | EC50 [2]: 860 ± 180 nM | protective rate (non-death mice within 12 h) ([3]; 15 mg/kg body weight i.p.): 50% | seizure threshold ([3]; 15 mg/kg body weight i.p.): 858.17 ± 528.48 s
